Laboratory results: PubChem BioAssay (NCI)
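Each compound was tested at five concentrations against cells in 96-well plates for 48 hours. GI50 is the concentration that inhibits growth by half. At the TGI there is no net growth.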

Legend:
Test in all cases: NCI tumour cell line growth inhibition, 48 h
HOP-92 NSCLC = test system: HOP-92 NSCLC
NCI-H23 lung = test system: NCI-H23 lung
NCI-H460 lung = test system: NCI-H460 lung
MDA-MB-435 = test system: MDA-MB-435
CAKI-1 renal = test system: CAKI-1 renal
SF-539 CNS = test system: SF-539 CNS
SNB-75 CNS = test system: SNB-75 CNS
SN12C renal = test system: SN12C renal
A498 renal = test system: A498 renal
HL-60(TB) leukemia = test system: HL-60(TB) leukemia
MOLT-4 leukemia = test system: MOLT-4 leukemia
BT-549 breast = test system: BT-549 breast
NCI-H226 lung = test system: NCI-H226 lung
IGROV1 ovarian = test system: IGROV1 ovarian
OVCAR-8 ovarian = test system: OVCAR-8 ovarian
COLO 205 colon = test system: COLO 205 colon
HOP-62 NSCLC = test system: HOP-62 NSCLC
SK-MEL-28 melanoma = test system: SK-MEL-28 melanoma
HT29 colon = test system: HT29 colon
RPMI-8226 leukemia = test system: RPMI-8226 leukemia
SK-OV-3 ovarian = test system: SK-OV-3 ovarian
MDA-MB-231 breast = test system: MDA-MB-231 breast
SF-268 CNS = test system: SF-268 CNS
T-47D breast = test system: T-47D breast
TK-10 renal = test system: TK-10 renal
OVCAR-5 ovarian = test system: OVCAR-5 ovarian
786-0 renal = test system: 786-0 renal
CCRF-CEM leukemia = test system: CCRF-CEM leukemia
HCC-2998 colon = test system: HCC-2998 colon
SW-620 colon = test system: SW-620 colon
MALME-3M melanoma = test system: MALME-3M melanoma
ACHN renal = test system: ACHN renal
A549 NSCLC = test system: A549 NSCLC
K-562 leukemia = test system: K-562 leukemia
HCT-15 colon = test system: HCT-15 colon
PC-3 prostate = test system: PC-3 prostate
OVCAR-3 ovarian = test system: OVCAR-3 ovarian
LOX IMVI melanoma = test system: LOX IMVI melanoma
HCT-116 colon = test system: HCT-116 colon
UACC-257 melanoma = test system: UACC-257 melanoma
MCF7 breast = test system: MCF7 breast
SK-MEL-2 melanoma = test system: SK-MEL-2 melanoma
RXF 393 renal = test system: RXF 393 renal
DU-145 prostate = test system: DU-145 prostate
M14 melanoma = test system: M14 melanoma
U251 CNS = test system: U251 CNS
SK-MEL-5 melanoma = test system: SK-MEL-5 melanoma
NCI/ADR-RES ovarian = test system: NCI/ADR-RES ovarian
UO-31 renal = test system: UO-31 renal
NCI-H522 lung = test system: NCI-H522 lung
KM12 colon = test system: KM12 colon
UACC-62 melanoma = test system: UACC-62 melanoma
OVCAR-4 ovarian = test system: OVCAR-4 ovarian
HS 578T breast = test system: HS 578T breast
SR leukemia = test system: SR leukemia
SF-295 CNS = test system: SF-295 CNS
EKVX NSCLC = test system: EKVX NSCLC
SNB-19 CNS = test system: SNB-19 CNS

## CC(C)(C)[Si](C)(C)OC1[C@@H](O[Si](C)(C)C(C)(C)C)[C@@H](CNC(=O)NC(=O)CF)O[C@H]1n1cnc2c(NC(=O)Nc3ccccc3)ncnc21 (some centres undefined)
HOP-92 NSCLC
  GI50: 6.48 µM
  TGI: 19.8 µM
NCI-H23 lung
  GI50: 14.3 µM
  TGI: > 50 µM
NCI-H460 lung
  GI50: 8.32 µM
  TGI: > 50 µM
MDA-MB-435
  GI50: 14.6 µM
  TGI: > 50 µM
CAKI-1 renal
  GI50: 27.3 µM
  TGI: > 50 µM
SF-539 CNS
  GI50: 14.5 µM
  TGI: > 50 µM
SNB-75 CNS
  GI50: 8.45 µM
  TGI: > 50 µM
SN12C renal
  GI50: 3 µM
  TGI: 13.2 µM
A498 renal
  GI50: 8.92 µM
  TGI: 25.3 µM
HL-60(TB) leukemia
  GI50: 17.4 µM
  TGI: > 50 µM
MOLT-4 leukemia
  GI50: 4.19 µM
  TGI: 43.7 µM
BT-549 breast
  GI50: 12.2 µM
  TGI: 42.5 µM
NCI-H226 lung
  GI50: 5.5 µM
  TGI: > 50 µM
IGROV1 ovarian
  GI50: 22.5 µM
  TGI: > 50 µM
OVCAR-8 ovarian
  GI50: 12.8 µM
  TGI: > 50 µM
COLO 205 colon
  GI50: 7.66 µM
  TGI: 18.4 µM
HOP-62 NSCLC
  GI50: 9.31 µM
  TGI: > 50 µM
SK-MEL-28 melanoma
  GI50: > 50 µM
  TGI: > 50 µM
HT29 colon
  GI50: 7.35 µM
  TGI: 25.9 µM
RPMI-8226 leukemia
  GI50: 14 µM
  TGI: > 50 µM
SK-OV-3 ovarian
  GI50: > 50 µM
  TGI: > 50 µM
MDA-MB-231 breast
  GI50: 7.76 µM
  TGI: 23.1 µM
SF-268 CNS
  GI50: 12.6 µM
  TGI: > 50 µM
T-47D breast
  GI50: 4.7 µM
  TGI: > 50 µM
TK-10 renal
  GI50: 16.5 µM
  TGI: 41.7 µM
OVCAR-5 ovarian
  GI50: 15.9 µM
  TGI: > 50 µM
786-0 renal
  GI50: 7.46 µM
  TGI: 15.9 µM
CCRF-CEM leukemia
  GI50: 11.6 µM
  TGI: > 50 µM
HCC-2998 colon
  GI50: 9.23 µM
  TGI: 31.3 µM
SW-620 colon
  GI50: 15.5 µM
  TGI: > 50 µM
MALME-3M melanoma
  GI50: 30.8 µM
  TGI: > 50 µM
ACHN renal
  GI50: 8.67 µM
  TGI: 38.6 µM
A549 NSCLC
  GI50: 6.92 µM
  TGI: > 50 µM
K-562 leukemia
  GI50: 14.7 µM
  TGI: > 50 µM
HCT-15 colon
  GI50: 11.2 µM
  TGI: > 50 µM
PC-3 prostate
  GI50: 2.19 µM
  TGI: > 50 µM
OVCAR-3 ovarian
  GI50: 11.1 µM
  TGI: 23.4 µM
LOX IMVI melanoma
  GI50: 6.14 µM
  TGI: 12.5 µM
HCT-116 colon
  GI50: 5.21 µM
  TGI: 20.5 µM
UACC-257 melanoma
  GI50: 20 µM
  TGI: > 50 µM
MCF7 breast
  GI50: 1.78 µM
  TGI: 13.2 µM
SK-MEL-2 melanoma
  GI50: 30.9 µM
  TGI: > 50 µM
RXF 393 renal
  GI50: 1.35 µM
  TGI: 4.57 µM
DU-145 prostate
  GI50: 17.7 µM
  TGI: > 50 µM
M14 melanoma
  GI50: 15.9 µM
  TGI: > 50 µM
U251 CNS
  GI50: 9.67 µM
  TGI: 25.8 µM
SK-MEL-5 melanoma
  GI50: 3.07 µM
  TGI: 25.6 µM
NCI/ADR-RES ovarian
  GI50: 48.5 µM
  TGI: > 50 µM
UO-31 renal
  GI50: 11.2 µM
  TGI: > 50 µM
NCI-H522 lung
  GI50: > 50 µM
  TGI: > 50 µM
KM12 colon
  GI50: 9.36 µM
  TGI: 38.3 µM
UACC-62 melanoma
  GI50: 31.2 µM
  TGI: > 50 µM
OVCAR-4 ovarian
  GI50: 6.18 µM
  TGI: > 50 µM
HS 578T breast
  GI50: 10.1 µM
  TGI: > 50 µM
SR leukemia
  GI50: 4.5 µM
  TGI: 32 µM

## COc1ccc2c(c1)CC[C@@H]1[C@@H]2CC[C@]2(C)c3c(cc(C(=O)O)c4sccc34)C[C@@H]12
NCI-H23 lung
  GI50: 18.5 µM
  TGI: 39.2 µM
SF-295 CNS
  GI50: 14.3 µM
  TGI: 31.9 µM
NCI-H460 lung
  GI50: 11.6 µM
  TGI: 37.7 µM
MDA-MB-435
  GI50: 18.4 µM
  TGI: 39.6 µM
CAKI-1 renal
  GI50: 33.8 µM
  TGI: 63.7 µM
SF-539 CNS
  GI50: 16.7 µM
  TGI: 35.1 µM
SNB-75 CNS
  GI50: 20.8 µM
  TGI: 47.9 µM
SN12C renal
  GI50: 17.8 µM
  TGI: 41.3 µM
A498 renal
  GI50: 15.6 µM
  TGI: 34.9 µM
HL-60(TB) leukemia
  GI50: 8.61 µM
  TGI: 25.3 µM
MOLT-4 leukemia
  GI50: 10.1 µM
  TGI: 25.4 µM
BT-549 breast
  GI50: 18.7 µM
  TGI: 38.8 µM
NCI-H226 lung
  GI50: 23 µM
  TGI: 55.4 µM
IGROV1 ovarian
  GI50: 29.7 µM
  TGI: > 100 µM
OVCAR-8 ovarian
  GI50: 24.5 µM
  TGI: 88.1 µM
COLO 205 colon
  GI50: 16.4 µM
  TGI: 70 µM
HOP-62 NSCLC
  GI50: 19.6 µM
  TGI: 38.5 µM
SK-MEL-28 melanoma
  GI50: 15.8 µM
  TGI: 33.4 µM
HT29 colon
  GI50: 13.8 µM
  TGI: 34 µM
EKVX NSCLC
  GI50: 16.2 µM
  TGI: 40.5 µM
RPMI-8226 leukemia
  GI50: 4.01 µM
  TGI: 17.7 µM
SK-OV-3 ovarian
  GI50: 26 µM
  TGI: 61.2 µM
MDA-MB-231 breast
  GI50: 25.6 µM
  TGI: 59.7 µM
SF-268 CNS
  GI50: 17.6 µM
  TGI: 48.3 µM
T-47D breast
  GI50: 8.21 µM
  TGI: 49 µM
TK-10 renal
  GI50: 19.2 µM
  TGI: 48.1 µM
OVCAR-5 ovarian
  GI50: 26 µM
  TGI: 50.1 µM
786-0 renal
  GI50: 16.9 µM
  TGI: 32.5 µM
CCRF-CEM leukemia
  GI50: 3.42 µM
  TGI: 13.3 µM
HCC-2998 colon
  GI50: 11 µM
  TGI: 26.7 µM
SW-620 colon
  GI50: 16.1 µM
  TGI: 36.7 µM
MALME-3M melanoma
  GI50: 22.6 µM
  TGI: 42.7 µM
ACHN renal
  GI50: 18.9 µM
  TGI: 78.4 µM
A549 NSCLC
  GI50: 11.2 µM
  TGI: 35.9 µM
K-562 leukemia
  GI50: 5.79 µM
  TGI: 20.9 µM
HCT-15 colon
  GI50: 10.8 µM
  TGI: 32 µM
PC-3 prostate
  GI50: 10.5 µM
  TGI: 25.1 µM
OVCAR-3 ovarian
  GI50: 24.7 µM
  TGI: 72.1 µM
LOX IMVI melanoma
  GI50: 17.7 µM
  TGI: 42.8 µM
HCT-116 colon
  GI50: 11.2 µM
  TGI: 24.8 µM
UACC-257 melanoma
  GI50: 26.7 µM
  TGI: 61.4 µM
MCF7 breast
  GI50: 17.2 µM
  TGI: 59 µM
SK-MEL-2 melanoma
  GI50: 37.5 µM
  TGI: > 100 µM
SNB-19 CNS
  GI50: 17.8 µM
  TGI: 48.4 µM
RXF 393 renal
  GI50: 16.5 µM
  TGI: 36 µM
DU-145 prostate
  GI50: 19.2 µM
  TGI: 36.2 µM
M14 melanoma
  GI50: 18.2 µM
  TGI: 37.1 µM
U251 CNS
  GI50: 16.4 µM
  TGI: 47.5 µM
SK-MEL-5 melanoma
  GI50: 14.7 µM
  TGI: 28.4 µM
NCI/ADR-RES ovarian
  GI50: 15.4 µM
  TGI: 40.2 µM
UO-31 renal
  GI50: 20.2 µM
  TGI: 64.7 µM
NCI-H522 lung
  GI50: 24.7 µM
  TGI: 86.8 µM
KM12 colon
  GI50: 10.6 µM
  TGI: 23.5 µM
UACC-62 melanoma
  GI50: 17.1 µM
  TGI: 36.5 µM
OVCAR-4 ovarian
  GI50: 26.3 µM
  TGI: 79.8 µM
HS 578T breast
  GI50: 28.7 µM
  TGI: 96.1 µM
SR leukemia
  GI50: 16.4 µM
  TGI: 45.1 µM
